Test [1] relates to Leptosphaeria nodorum—LEPTNO. Put plainly: Glume Blotch of Wheat, in vivo whole plant, 24 Hour Protectant. The note with it: control of fungal infection vs untreated plants; for pest or weed control at 100 ppm: Leptosphaeria, read-out: LEPTNO in vivo 1 Day Protectant.
Test [2] has as its system Phytophthora infestans (PHYTIN). Kind of test: microbe, parasite or virus in culture. It is filed as cell-based. The following applies: Phytophthora infestans, read-out: PHYTIN in vitro Growth Inhibition.
For test [3], the system named is Stagonospora nodorum (Leptosphaeria nodorum—LEPTNO). Put plainly: In vitro fungal growth inhibition, Stagonospora nodorum (LEPTNO). The class given is cell-based. The note with it: Leptosphaeria, read-out: LEPTNO in vitro Growth Inhibition.
The subject of test [4] is Phytophthora infestans—PHYTIN. Put plainly: whole plant or invertebrate. The class given is in vivo. The note with it: Phytophthora, in Solanum lycopersicum, 24 h, read-out: PHYTIN in vivo 1 Day Protectant.
The test system of the next test is Septoria tritici—SEPTTR. Put plainly: Leaf Blotch of Wheat, in vivo whole plant, 24 Hour Protectant. The following applies: control of fungal infection vs untreated plants; for pest or weed control at 100 ppm: Zymoseptoria tritici, 24 h, read-out: SEPTTR in vivo 1 Day Protectant.
In test [5] the test system is Puccinia recondita—PUCCRT. Kind of test: Brown Rust of Wheat, in vivo whole plant, 24 Hour Protectant. The note with it: control of fungal infection vs untreated plants; for pest or weed control at 100 ppm: Puccinia, read-out: PUCCRT in vivo 1 Day Protectant.
The next test concerns Erysiphe graminis—ERYSGT. Kind of test: Powdery Mildew of Wheat, in vivo whole plant, 24 Hour Protectant. The note with it: Erysiphe, control of fungal infection vs untreated plants, read-out: ERYSGT in vivo 1 Day Protectant.
Test [6] relates to Mycosphaerella graminicola (Septoria tritici—SEPTTR). Kind of test: In vitro fungal growth inhibition, Mycosphaerella graminicola (SEPTTR). It is filed as cell-based. The following applies: Zymoseptoria tritici, read-out: SEPTTR in vitro Growth Inhibition.
In test [7] the test system is Rhizoctonia solani (RHIZSO). Kind of test: microbe, parasite or virus in culture. It is filed as cell-based. The following applies: Rhizoctonia solani, read-out: RHIZSO in vitro Growth Inhibition.
The test system of a further test is Ustilago maydis (USTIMA). Kind of test: microbe, parasite or virus in culture. The class given is cell-based. The following applies: Mycosarcoma maydis, read-out: USTIMA in vitro Growth Inhibition.
Test [8] concerns Magnaporthe grisea (Pyricularia oryzae—PYRIOR). Kind of test: microbe, parasite or virus in culture. It is filed as cell-based. The note with it: Pyricularia oryzae, read-out: PYRIOR in vitro Growth Inhibition.
Where [9] appears, read: 100 ppm spray, wheat, 24 hour protectant.
Where [10] appears, read: 100 ppm spray, 24 hour protectant, wheat.
Setting [11] is: wheat plants sprayed at 100 ppm, inoculated after 24 hours.

The values below come from patent US6706740B2, “Fungicidal heterocyclic aromatic amides and their compositions, methods of use and preparation” (Dow AgroSciences LLC, priority 1999, dated 2004).

Like-named read-outs stand apart in the source and are kept apart here. A value given as a limit tells only on which side of the number the result lay.

As for `COc1ccnc(C(=O)N[C@H]2COC(=O)[C@H](Cc3ccccc3)[C@@H](OC(=O)C3C(C)CCCC3C)[C@H](C)OC2=O)c1O` (stereo partly drawn) [Compound 393], the pest or weed control at 100 ppm is 25 to 74% in [1] (setting [9]); below 25% in test [4]; 25 to 74% in the test on Septoria tritici—SEPTTR (setting [9]); 25 to 74% in test [5] (setting [9]); below 25% in the test on Erysiphe graminis—ERYSGT (setting [9]). The inhibition at 25 ppm in test [2] is below 80%; in test [3] (25 ppm in growth medium) it was above 80%; in [6] (25 ppm in growth medium) it was above 80%; in test [7], below 80%; with Ustilago maydis (USTIMA), above 80%; in test [8], above 80%.
Regarding `CC1(C)CC(NC(=O)c2ncccc2O)CC(C)(C)C1=O` [Compound 205], the pest or weed control at 100 ppm (in test [1] (setting [10]); in test [4]; with Septoria tritici—SEPTTR (setting [10]); in [5] (setting [10]); in the test on Erysiphe graminis—ERYSGT (setting [10])) was below 25% in each case. Further, the inhibition at 25 ppm (in [2]; in [3] (25 ppm in growth medium); in test [6] (25 ppm in growth medium); in [7]; with Ustilago maydis (USTIMA); in test [8]) was below 80% each time.
On to `CC(=O)Oc1cccnc1C(=O)N[C@H]1COC(=O)[C@H](Cc2ccccc2)[C@@H](OC(=O)C(C)C)[C@H](C)OC1=O` [Compound 568], for which, in [1] (setting [11]), the “LEPTNO in vivo 1 Day Protectant” value is on record as “+ +”. The inhibition at 25 ppm in test [2] is below 80%; in test [3] (25 ppm in the growth medium) it was above 80%; in [6] (25 ppm in the growth medium) it was above 80%; in [7], below 80%; in the test on Ustilago maydis (USTIMA), below 80%; in test [8], below 80%. In addition, the pest or weed control at 100 ppm (in [4]; in the test with Erysiphe graminis—ERYSGT (setting [11])) was below 25% each time. For the same compound, the “SEPTTR in vivo 1 Day Protectant” value in the test on Septoria tritici—SEPTTR (setting [11]) is “+ +”. Also, the “PUCCRT in vivo 1 Day Protectant” value in test [5] (setting [11]) is listed as “+ +”.
As to `COc1ccnc(C(=O)Nc2ccccc2Oc2ccc(C)cc2)c1O` [Compound 411], the pest or weed control at 100 ppm (in test [1] (setting [9]); in [4]; in the test on Septoria tritici—SEPTTR (setting [9]); in [5] (setting [9]); in the test on Erysiphe graminis—ERYSGT (setting [9])) was below 25% throughout. The inhibition at 25 ppm in test [2] was below 80%; in test [3] (25 ppm in growth medium), above 80%; in test [6] (25 ppm in growth medium) it was above 80%; in test [7], below 80%; in the test with Ustilago maydis (USTIMA), below 80%; in test [8] it was below 80%.
As to `CC(NC(=O)c1ncccc1O)c1ccc(Cl)cc1` (stereo not drawn) [Compound 230], the pest or weed control at 100 ppm in test [1] (setting [10]) is 25 to 74%; in [4], below 25%; with Septoria tritici—SEPTTR (setting [10]), 25 to 74%; in test [5] (setting [10]), below 25%; in the test with Erysiphe graminis—ERYSGT (setting [10]) it was below 25%. The inhibition at 25 ppm in test [2] is above 80%; in [3] (25 ppm in growth medium), above 80%; in test [6] (25 ppm in growth medium), above 80%; in test [7], below 80%; with Ustilago maydis (USTIMA), below 80%; in test [8] it was above 80%.
For the compound `COc1ccnc(C(=O)Nc2ccc(Oc3ccccc3Cl)cc2)c1O` [Compound 441], the pest or weed control at 100 ppm (in test [1] (setting [9]); in test [4]; in the test on Septoria tritici—SEPTTR (setting [9]); in [5] (setting [9]); in the test on Erysiphe graminis—ERYSGT (setting [9])) was below 25% throughout. In addition, the inhibition at 25 ppm in test [2] is below 80%; in [3] (25 ppm in growth medium) it was below 80%; in test [6] (25 ppm in growth medium), above 80%; in [7] it was below 80%; in the test with Ustilago maydis (USTIMA), below 80%; in test [8], below 80%.
As to `CC1(C)CC(NC(=O)c2ccncc2O)CC(C)(C)C1` [Compound 505], the pest or weed control at 100 ppm (in test [1] (setting [11]); in test [4]; in the test on Septoria tritici—SEPTTR (setting [11]); in test [5] (setting [11]); in the test with Erysiphe graminis—ERYSGT (setting [11])) was below 25% throughout. In addition, the inhibition at 25 ppm (in [2]; in test [3] (25 ppm in the growth medium); in test [6] (25 ppm in the growth medium); in [7]; in the test with Ustilago maydis (USTIMA); in test [8]) was below 80% throughout.
Regarding `COc1ccnc(C(=O)Nc2ccc(Oc3cc(Oc4ccccc4)ncn3)cc2)c1O` [Compound 468], the pest or weed control at 100 ppm is below 25% in test [1] (setting [11]); below 25% in test [4]; 25 to 74% with Septoria tritici—SEPTTR (setting [11]); below 25% in test [5] (setting [11]); below 25% in the test on Erysiphe graminis—ERYSGT (setting [11]). The inhibition at 25 ppm (in test [2]; in test [3] (25 ppm in the growth medium); in [6] (25 ppm in the growth medium); in test [7]; in the test with Ustilago maydis (USTIMA); in test [8]) was below 80% in each case.
With `COC(=O)C(COC(=O)CC(C)OC(=O)C(C)C)NC(=O)c1nccc(OC)c1O` (stereo not drawn) [Compound 347], the pest or weed control at 100 ppm in [1] (setting [9]) is 25 to 74%; in [4] it was below 25%; in the test with Septoria tritici—SEPTTR (setting [9]), below 25%; in test [5] (setting [9]), 25 to 74%; in the test on Erysiphe graminis—ERYSGT (setting [9]) it was below 25%. Further, the inhibition at 25 ppm (in [2]; in [3] (25 ppm in growth medium); in test [6] (25 ppm in growth medium); in test [7]; with Ustilago maydis (USTIMA); in [8]) was below 80% throughout.
For the compound `COc1ccnc(C(=O)NC2C3CSC2CN(Cc2ccccc2)C3)c1O` (stereo not drawn) [Compound 325], the pest or weed control at 100 ppm in test [1] (setting [10]) was 25 to 74%; in [4], below 25%; with Septoria tritici—SEPTTR (setting [10]), below 25%; in test [5] (setting [10]) it was below 25%; in the test on Erysiphe graminis—ERYSGT (setting [10]), below 25%. In addition, the inhibition at 25 ppm (in test [2]; in test [3] (25 ppm in growth medium); in test [6] (25 ppm in growth medium); in [7]; in the test with Ustilago maydis (USTIMA); in test [8]) was below 80% throughout.
For the compound `COc1ccnc(C(=O)NC2C3CC4C(C3Cl)C42)c1O` (stereo not drawn) [Compound 304], the pest or weed control at 100 ppm in test [1] (setting [10]) is 25 to 74%; in test [4], below 25%; in test [5] (setting [10]), below 25%; in the test with Erysiphe graminis—ERYSGT (setting [10]), below 25%. Further, the inhibition at 25 ppm is below 80% in [2]; below 80% in test [3] (25 ppm in growth medium); below 80% in test [6] (25 ppm in growth medium); above 80% in test [7]; below 80% with Ustilago maydis (USTIMA); below 80% in test [8]. In addition, the “SEPTTR in vivo 1 Day Protectant” value in the test with Septoria tritici—SEPTTR (setting [10]) was “+ +”.
As for `COC(=O)C(COC(=O)C(C)Cc1ccccc1)NC(=O)c1nccc(OC)c1O` (stereo not drawn) [Compound 345], the pest or weed control at 100 ppm in test [1] (setting [9]) was below 25%; in test [4], below 25%; with Septoria tritici—SEPTTR (setting [9]), below 25%; in test [5] (setting [9]), 25 to 74%; in the test with Erysiphe graminis—ERYSGT (setting [9]) it was below 25%. The inhibition at 25 ppm (in test [2]; in test [3] (25 ppm in growth medium); in test [6] (25 ppm in growth medium); in test [7]; with Ustilago maydis (USTIMA); in test [8]) was below 80% in each case.
